Results: ChEMBL document CHEMBL1134285, “Novel agouti-related-protein-based melanocortin-1 receptor antagonist” (J Med Chem, 2001)
Positions of bridges follow the written chain, without caps; N, C: chain ends. Residues, ends and D or L forms follow the SMILES beside them.

Target: Melanocortin receptor 4 (Mus musculus, UniProt P56450)
Experiment: Antagonist activity against mouse melanocortin-4 receptor (MC4R) using Schild analysis
Assay type: functional
Conditions: for Kb: read-out: pA2 (converted)

Sequence of Melanocortin receptor 4 (P56450 whole entry): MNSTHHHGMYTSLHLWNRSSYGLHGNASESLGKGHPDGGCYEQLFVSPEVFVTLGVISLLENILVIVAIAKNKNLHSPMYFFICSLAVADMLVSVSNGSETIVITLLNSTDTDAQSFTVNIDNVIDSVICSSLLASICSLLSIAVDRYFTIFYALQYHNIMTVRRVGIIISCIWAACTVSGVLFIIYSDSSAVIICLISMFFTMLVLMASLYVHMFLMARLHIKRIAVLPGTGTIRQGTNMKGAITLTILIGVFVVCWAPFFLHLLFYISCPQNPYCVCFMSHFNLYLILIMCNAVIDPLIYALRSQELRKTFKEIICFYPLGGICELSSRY

Row | Structure (SMILES) | pA2 | Kb [nM]
1 | C[C@@H]1NC(=O)[C@H](CC(N)=O)NC(=O)[C@H](Cc2ccccc2)NC(=O)[C@H](Cc2ccccc2)NC(=O)[C@H](CCCN=C(N)N)NC(=O)CC[C@H](NC(=O)[C@@H](N)Cc2ccc(O)cc2)C(=O)NC[C@@H](C(=O)N[C@@H](Cc2ccc(O)cc2)C(N)=O)NC(=O)[C@H](Cc2ccccc2)NC1=O | 6.98 | –
2 | C[C@@H]1NC(=O)[C@H](CC(N)=O)NC(=O)[C@H](Cc2ccccc2)NC(=O)[C@H](Cc2ccccc2)NC(=O)[C@H](CCCNC(=N)N)NC(=O)[C@@H](NC(=O)[C@@H](N)Cc2ccc(O)cc2)CC(=O)NC[C@@H](C(=O)N[C@@H](Cc2ccc(O)cc2)C(N)=O)NC(=O)[C@H](Cc2ccccc2)NC1=O | – | 479
3 | C[C@@H]1NC(=O)[C@H](CC(N)=O)NC(=O)[C@H](Cc2ccccc2)NC(=O)[C@H](Cc2ccccc2)NC(=O)[C@H](CCCNC(=N)N)NC(=O)[C@@H](NC(=O)[C@@H](N)Cc2ccc(O)cc2)CSSC[C@@H](C(=O)N[C@@H](Cc2ccc(O)cc2)C(N)=O)NC(=O)[C@H](Cc2ccccc2)NC1=O (H-YCRFFNAFCY-NH2; disulfide 2-9) | – | 155
